The results in this text go back to patent publication US11084818B2 (HEPO PHARMACEUTICAL CO., LTD., priority 2016, dated 2021).

In general, EC50 refers to the midpoint of the concentration-response curve.

A value given as a limit tells only on which side of the number the result lay.

Experiment [1] deals with T1, hTLR7 (Homo sapiens, UniProt Q9NYK1).
T1 construct: host or cells: HEK-Blue hTLR7 (HEK293-derived reporter line)
T1 sequence (Q9NYK1 27-1049): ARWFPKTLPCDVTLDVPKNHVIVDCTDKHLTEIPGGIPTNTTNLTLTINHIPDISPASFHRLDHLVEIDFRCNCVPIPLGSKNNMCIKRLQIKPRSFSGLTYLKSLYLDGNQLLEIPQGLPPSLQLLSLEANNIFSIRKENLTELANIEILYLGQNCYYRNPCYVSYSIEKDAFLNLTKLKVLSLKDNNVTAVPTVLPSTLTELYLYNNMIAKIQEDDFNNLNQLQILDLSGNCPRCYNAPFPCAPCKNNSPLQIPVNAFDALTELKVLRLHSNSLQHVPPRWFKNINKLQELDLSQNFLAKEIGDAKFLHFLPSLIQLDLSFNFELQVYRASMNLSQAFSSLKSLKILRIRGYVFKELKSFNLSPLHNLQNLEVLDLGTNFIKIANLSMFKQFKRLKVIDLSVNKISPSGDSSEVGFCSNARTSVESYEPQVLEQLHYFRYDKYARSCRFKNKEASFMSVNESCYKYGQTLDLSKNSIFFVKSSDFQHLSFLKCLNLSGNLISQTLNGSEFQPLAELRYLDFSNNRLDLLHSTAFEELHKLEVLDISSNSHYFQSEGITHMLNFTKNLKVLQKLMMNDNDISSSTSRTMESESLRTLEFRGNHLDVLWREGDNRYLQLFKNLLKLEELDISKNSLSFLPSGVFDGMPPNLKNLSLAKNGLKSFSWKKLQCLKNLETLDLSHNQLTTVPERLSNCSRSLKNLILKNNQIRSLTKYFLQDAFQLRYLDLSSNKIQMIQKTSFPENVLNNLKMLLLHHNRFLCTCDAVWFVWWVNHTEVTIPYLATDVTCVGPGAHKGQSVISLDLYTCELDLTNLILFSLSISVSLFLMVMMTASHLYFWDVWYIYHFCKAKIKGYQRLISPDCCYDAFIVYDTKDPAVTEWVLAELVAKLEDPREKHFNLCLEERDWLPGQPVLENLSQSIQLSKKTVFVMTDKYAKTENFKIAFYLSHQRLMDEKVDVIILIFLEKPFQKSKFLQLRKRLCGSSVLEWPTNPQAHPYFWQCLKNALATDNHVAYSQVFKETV
Description: Activation activity test of hTLR7 (HEK-Blue hTLR7 cells, QUANTI-Blue OD650). As to conditions: 24 hours incubation, read-out: TLR7 (EC50). It counts as cell-based.

The next experiment concerns the target T2, hTLR8 (Homo sapiens, UniProt Q9NR97).
T2 construct: host or cells: HEK-Blue hTLR8 (HEK293-derived reporter line)
T2 sequence (Q9NR97 27-1041): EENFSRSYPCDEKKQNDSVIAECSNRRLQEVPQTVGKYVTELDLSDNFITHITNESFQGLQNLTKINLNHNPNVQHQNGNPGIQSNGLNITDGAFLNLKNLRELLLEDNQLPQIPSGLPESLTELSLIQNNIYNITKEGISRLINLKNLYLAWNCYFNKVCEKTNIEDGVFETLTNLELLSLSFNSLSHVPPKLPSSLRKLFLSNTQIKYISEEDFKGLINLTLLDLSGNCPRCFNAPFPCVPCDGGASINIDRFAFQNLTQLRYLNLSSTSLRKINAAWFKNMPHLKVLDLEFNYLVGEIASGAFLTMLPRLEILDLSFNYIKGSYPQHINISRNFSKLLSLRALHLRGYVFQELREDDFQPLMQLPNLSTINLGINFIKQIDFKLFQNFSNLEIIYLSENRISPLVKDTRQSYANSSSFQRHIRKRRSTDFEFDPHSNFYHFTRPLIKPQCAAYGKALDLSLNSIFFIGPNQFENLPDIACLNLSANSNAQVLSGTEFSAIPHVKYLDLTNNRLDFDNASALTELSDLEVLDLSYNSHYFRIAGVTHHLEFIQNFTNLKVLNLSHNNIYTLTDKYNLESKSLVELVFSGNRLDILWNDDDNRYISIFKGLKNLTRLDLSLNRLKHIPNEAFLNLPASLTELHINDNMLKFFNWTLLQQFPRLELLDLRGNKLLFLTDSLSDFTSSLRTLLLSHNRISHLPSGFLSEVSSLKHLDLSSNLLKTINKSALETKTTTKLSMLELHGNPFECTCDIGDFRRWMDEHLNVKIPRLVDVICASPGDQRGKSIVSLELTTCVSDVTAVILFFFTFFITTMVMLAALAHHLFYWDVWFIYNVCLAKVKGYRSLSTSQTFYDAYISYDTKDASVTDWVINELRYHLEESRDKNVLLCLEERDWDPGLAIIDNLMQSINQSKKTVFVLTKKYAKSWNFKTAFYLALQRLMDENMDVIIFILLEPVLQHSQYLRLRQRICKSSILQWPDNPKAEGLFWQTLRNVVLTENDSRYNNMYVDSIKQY
Description: Activation activity test of hTLR8 (HEK-Blue hTLR8 cells, QUANTI-Blue OD650). As to conditions: HEK-Blue hTLR8 cells, 24 hours incubation; read-out: TLR8 (EC50). In kind it is cell-based.

Experiment [2] has as its target T1, hTLR7. The experiment can be described thus: EC50 of GS9620 for hTLR7 as reported in WO2016023511A1. As to conditions: in words, from the EC50 values reported in WO2016023511A1.

Take `COCCOc1ncc2nc(N)n(Cc3ccc(CN4CCCC4)cc3)c2n1` [Example 61, 2-(2-methoxyethoxy)-9-(4-(pyrrolidin-1-ylmethyl)benzyl)-7,9-dihydro-8H-purin-8-amine]: the EC50 at hTLR7 [1] is 10 to 100 µM; at hTLR8, over 100 µM. Consider `COCCOc1ncc2[nH]c(=O)n(Cc3ccc(CN4CCCC4)c(F)c3)c2n1` [Example 62, 2-(2-methoxyethoxy)-9-(3-fluoro-4-(pyrrolidin-1-ylmethyl)benzyl)-7,9-dihydro-8H-purin-8-one], for which the figures for the EC50 at hTLR7 [1] and at hTLR8 were 1 to 10 µM and over 100 µM, respectively. The corresponding values for `COCCOc1ncc2[nH]c(=O)n(Cc3ccc(CN4CCCC4)cc3F)c2n1` [Example 63, 2-(2-methoxyethoxy)-9-(2-fluoro-4-(pyrrolidin-1-ylmethyl)benzyl)-7,9-dihydro-8H-purin-8-one] are 1 to 10 µM and over 100 µM. Regarding `CC(C)OCCOc1ncc2[nH]c(=O)n(Cc3ccc(CN4CCCC4)cc3)c2n1` [Example 64, 9-(4-(pyrrolidin-1-ylmethyl)benzyl)-2-(2-isopropoxyethoxy)-7,9-dihydro-8H-purin-8-one], the half-maximal effective concentration (EC50) at hTLR7 [1] was 1 to 10 µM; at hTLR8, over 100 µM. The like results for `O=c1[nH]c2cnc(OCCOCC3CC3)nc2n1Cc1ccc(CN2CCCC2)cc1` [Example 65, 9-(4-(pyrrolidin-1-ylmethyl)benzyl)-2-(2-(cyclopropylmethoxy)ethoxy)-7,9-dihydro-8H-purin-8-one] were, in that order, 1 to 10 µM and over 100 µM.

As to `CCCCOc1ncc2[nH]c(=O)n(Cc3ccc(CN4CCCC4)cc3)c2n1` [Example 66, 9-(4-(pyrrolidin-1-ylmethyl)benzyl)-2-butoxy-7,9-dihydro-8H-purin-8-one], the concentration for a half-maximal effect (EC50) at hTLR7 [1] and on hTLR8 was over 100 µM throughout. Turning to `COCCOc1ncc2[nH]c(=O)n(CCc3ccc(CN4CCCC4)cc3)c2n1` [Example 67, 9-(4-(pyrrolidin-1-ylmethyl)phenethyl)-2-(2-methoxyethoxy)-7,9-dihydro-8H-purin-8-one], the EC50 on hTLR7 [1] and at hTLR8 was over 100 µM in each case. As to `COCCOc1ncc2[nH]c(=O)n(Cc3ccc(CCN4CCCC4)cc3)c2n1` [Example 68, 9-(4-(2-(pyrrolidin-1-yl)ethyl)benzyl)-2-(2-methoxyethoxy)-7,9-dihydro-8H-purin-8-one], the EC50 on hTLR7 [1] was 1 to 10 µM; on hTLR8, over 100 µM. In the case of `COCCOc1nc(O)c2[nH]c(=O)n(Cc3ccc(CN4CCCC4)cc3)c2n1` [Example 69, 6-hydroxy-2-(2-methoxyethoxy)-9-(4-(pyrrolidin-1-ylmethyl)benzyl)-7,9-dihydro-8H-purin-8-one], the half-maximal effective concentration (EC50) at hTLR7 [1] is 10 to 100 µM; at hTLR8, over 100 µM. The like results for `COCCOc1nc(F)c2[nH]c(=O)n(Cc3ccc(CN4CCCC4)cc3)c2n1` [Example 70, 6-fluoro-2-(2-methoxyethoxy)-9-(4-(pyrrolidin-1-ylmethyl)benzyl)-7,9-dihydro-8H-purin-8-one] were, in that order, 10 to 100 µM and over 100 µM. As to `CCCCOc1nc(N)c2c(n1)N(Cc1cccc(CN3CCCC3)c1)CC(=O)N2` [GS9620], the “selectivity to TLR7” value at hTLR7 [2] was “poor”.
